According to the supplement of paper PMC10307832:

Tests used:
Experiment in all cases: relative viability (nuclei count vs DMSO), 5 days (fraction); higher = more cells survive
Tosedostat + Alpelisib = compound: CC(C)C[C@@H](C(=O)N[C@H](C(=O)OC1CCCC1)c1ccccc1)[C@H](O)C(=O)NO [Tosedostat] + Cc1nc(NC(=O)N2CCC[C@H]2C(N)=O)sc1-c1ccnc(C(C)(C)C(F)(F)F)c1 [Alpelisib] (partner 2 µM)
In short: (§1)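 Relative viability was taken as the ratio of nuclei in treated wells to nuclei in vehicle wells. Lung cancer cell lines in 1536-well plates received compounds by pin tool one day after seeding, either one drug alone or a fixed anchor-drug dose plus five library-drug doses (not always all listed) in √10 steps. Nuclei were counted on 4× images after 5 days of treatment, and values are medians of duplicate plates.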

Tosedostat + Pemetrexed = compound: CC(C)C[C@@H](C(=O)N[C@H](C(=O)OC1CCCC1)c1ccccc1)[C@H](O)C(=O)NO [Tosedostat] + Nc1nc2[nH]cc(CCc3ccc(C(=O)N[C@@H](CCC(=O)O)C(=O)O)cc3)c2c(=O)[nH]1 [Pemetrexed] (partner 0.2 µM)
In short: as §1

Tosedostat + Olaparib = compound: CC(C)C[C@@H](C(=O)N[C@H](C(=O)OC1CCCC1)c1ccccc1)[C@H](O)C(=O)NO [Tosedostat] + O=C(c1cc(Cc2n[nH]c(=O)c3ccccc23)ccc1F)N1CCN(C(=O)C2CC2)CC1 [Olaparib] (partner 8 µM)
In short: as §1

[1] = compound: CC1=NN=C(O1)C2=NN=C(C=C2)N3CCC(CC3)OC4=C(C=CC(=C4)F)Cl + Cc1nc(Nc2ncc(C(=O)Nc3c(C)cccc3Cl)s2)cc(N2CCN(CCO)CC2)n1 [Dasatinib] (partner 0.075 µM)
In short: as §1

Cell Line UMC-11 has a relative viability (Tosedostat + Alpelisib; first compound 0.02 µM) of 0.962, a relative viability (Tosedostat + Alpelisib; first compound 0.06325 µM) of 0.87 and a relative viability (Tosedostat + Alpelisib; first compound 0.2 µM) of 0.957. The relative viability (Tosedostat + Alpelisib; first compound 0.6325 µM) was 0.942, the relative viability (Tosedostat + Alpelisib; first compound 2 µM) was 1.03 and the relative viability (Tosedostat + Pemetrexed; first compound 0.02 µM) was 0.86. For the same cell line, the relative viability (Tosedostat + Pemetrexed; first compound 0.06325 µM) was 0.723, the relative viability (Tosedostat + Pemetrexed; first compound 0.2 µM) was 0.85 and the relative viability (Tosedostat + Pemetrexed; first compound 0.6325 µM) was 0.84. It also gave a relative viability (Tosedostat + Pemetrexed; first compound 2 µM) of 0.94, a relative viability (Tosedostat + Olaparib; first compound 0.02 µM) of 0.374 and a relative viability (Tosedostat + Olaparib; first compound 0.06325 µM) of 0.336. For the same cell line, the relative viability (Tosedostat + Olaparib; first compound 0.2 µM) was 0.287, the relative viability (Tosedostat + Olaparib; first compound 0.6325 µM) was 0.273 and the relative viability (Tosedostat + Olaparib; first compound 2 µM) was 0.327. For the same cell line, the relative viability ([1]; first compound 0.253 µM) was 0.473, the relative viability ([1]; first compound 0.8 µM) was 0.476 and the relative viability ([1]; first compound 2.53 µM) was 0.512. It also gave a relative viability ([1]; first compound 8 µM) of 0.435.
